target: human plasma kallikrein (Homo sapiens (Human), UniProt P03952); details: human plasma kallikrein 25 pM, substrate 0.5 uM, 1 hour pre-incubation at room temperature, read at t=60 min
Sequence (P03952 whole entry, looked up): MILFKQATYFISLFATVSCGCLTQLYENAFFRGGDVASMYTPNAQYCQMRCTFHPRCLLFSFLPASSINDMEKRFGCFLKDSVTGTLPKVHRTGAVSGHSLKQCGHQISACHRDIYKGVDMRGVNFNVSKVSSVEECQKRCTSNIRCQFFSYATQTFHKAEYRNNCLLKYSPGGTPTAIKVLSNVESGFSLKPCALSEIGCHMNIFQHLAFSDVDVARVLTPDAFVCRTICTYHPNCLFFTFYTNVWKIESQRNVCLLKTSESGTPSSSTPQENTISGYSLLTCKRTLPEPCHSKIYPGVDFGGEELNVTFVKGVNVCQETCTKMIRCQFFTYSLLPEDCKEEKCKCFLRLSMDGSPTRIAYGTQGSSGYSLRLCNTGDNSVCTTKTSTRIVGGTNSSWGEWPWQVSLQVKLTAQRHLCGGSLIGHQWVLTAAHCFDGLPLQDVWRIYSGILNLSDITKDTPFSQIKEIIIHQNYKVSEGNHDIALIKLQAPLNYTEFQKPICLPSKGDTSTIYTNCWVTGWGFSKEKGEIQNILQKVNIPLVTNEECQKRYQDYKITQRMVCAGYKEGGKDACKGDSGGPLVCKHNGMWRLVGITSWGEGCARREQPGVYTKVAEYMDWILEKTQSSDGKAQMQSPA
Sequence (P03952 whole entry partner, looked up): as the sequence (P03952 whole entry, looked up) above
Procedure: All other chemicals were of analytical grade.
A stock solution of 0.17 mg/ml deinonized water was stored at −80° C. Enzymatic reactions were conducted in ‘assay buffer’, comprising 50 mM Hepes/NaOH at pH 7.8, 150 mM NaCl, 1 mM EDTA and 0.05% (w/v) CHAPS.
Both, enzyme and substrate were diluted in assay buffer.
All protein and peptide containing solutions were handled in siliconized tubes (Life Systems Design, Merenschwand, Switzerland). […] Plate measurements were conducted by the means of a Safire2 reader (TECAN, Maennedorf, Switzerland). The Safire2 is a monochomator-based instrument and wavelengths of 485 nm and 535 nm were taken for fluorescence excitation and emission acquisition, respectively. The bandwidths were set to 10 nm in both the excitation and the emission path. The fluorescence in each well was excited by three flashes per measurement.
The test compound was dissolved in 90% (v/v) DMSO/water. For the assays, 250 nL of the 90% (v/v) DMSO/water solution or compound solution were added per well, followed by the addition of 12.5 μl protease solution (protease in assay buffer). […] After 1 hour of pre-incubation at room temperature, the reactions were started by the addition of 12.5 μl substrate solution (in assay buffer, final assay concentration was 0.5 uM). After the addition of the substrate solution, the final DMSO concentration in the assay was 0.9% (v/v). […] The IC50 value was calculated from the plot of percentage of inhibition vs. inhibitor concentration by a logistics fit according to the following equation: y=A2+(A1−A2)/(1+(x/IC50)^p) where y is the %-inhibition at the inhibitor concentration, x. A1 is the lowest inhibition value, i.e. 0%, and A2 the maximum inhibition value, i.e. 100%. The exponent, p, is the Hill coefficient. The curve fitting was conducted with the non-linear regression routine of the analysis software Origin 7.55R6 (OriginLab Corporation).

| SMILES | IC50 |
| --- | --- |
| Cc1cc(N)nc(C)c1CNC(=O)c1ccn(S(=O)(=O)c2ccc3c(ccn3C)c2)c1 [Example 131, N-((6-amino-2,4-dimethylpyridin-3-yl)methyl)-1-(1-methyl-1H-indol-5-ylsulfonyl)-1H-pyrrole-3-carboxamide] | 9 nM |
| Cc1cc(N)nc(C)c1CNC(=O)c1ccn(S(=O)(=O)c2cccc(-c3ncccn3)c2)c1 [Example 132, N-((6-amino-2,4-dimethylpyridin-3-yl)methyl)-1-(3-(pyrimidin-2-yl)phenylsulfonyl)-1H-pyrrole-3-carboxamide] | 71 nM |
| Cc1cc(C)n(-c2ccc(S(=O)(=O)n3ccc(C(=O)NCc4c(C)cc(N)nc4C)c3)cc2)n1 [Example 133, N-((6-amino-2,4-dimethylpyridin-3-yl)methyl)-1-(4-(3,5-dimethyl-1H-pyrazol-1-yl)phenylsulfonyl)-1H-pyrrole-3-carboxamide] | 196 nM |
| Cc1cc(N)nc(C)c1CNC(=O)c1cnn(Cc2ccc(OCC(=O)O)cc2)c1 [Example 134, 2-(4-((4-((6-amino-2,4-dimethylpyridin-3-yl)methylcarbamoyl)-1H-pyrazol-1-yl)methyl)phenoxy)acetic acid] | 1100 nM |
| Cc1cc(N)nc(C)c1CNC(=O)c1cnn(Cc2ccc(OCC#N)cc2)c1 [Example 135, N-((6-amino-2,4-dimethylpyridin-3-yl)methyl)-1-(4-(cyanomethoxy)benzyl)-1H-pyrazole-4-carboxamide] | 89 nM |
| Cc1nc(N)cc(OCc2ncco2)c1CNC(=O)c1cn(Cc2ccccc2)nn1 [Example 137, N-((6-amino-2-methyl-4-(oxazol-2-ylmethoxy)pyridin-3-yl)methyl)-1-benzyl-1H-1,2,3-triazole-4-carboxamide] | 127 nM |
| Cc1cc(N)ncc1CNC(=O)c1cnn(Cc2ccccc2)c1 [Example 138, N-((6-amino-4-methylpyridin-3-yl)methyl)-1-benzyl-1H-pyrazole-4-carboxamide] | 62700 nM |
| Cc1cc(N)nc(C)c1CNC(=O)c1cnn(Cc2ccc(Cn3ccc(=O)[nH]3)cc2)c1 [Example 139, N-((6-amino-2,4-dimethylpyridin-3-yl)methyl)-1-(4-((3-oxo-2,3-dihydro-1H-pyrazol-1-yl)methyl)benzyl)-1H-pyrazole-4-carboxamide] | 4.9 nM |
| Cc1cc(N)nc(C)c1CNC(=O)c1cnn(Cc2ccc(Cn3ccnn3)cc2)c1 [Example 140, 1-(4-((1H-1,2,3-triazol-1-yl)methyl)benzyl)-N-((6-amino-2,4-dimethylpyridin-3-yl)methyl)-1H-pyrazole-4-carboxamide] | 4.6 nM |
| Cc1cc(N)nc(C)c1CNC(=O)c1cnn(Cc2ccc(Cn3c(C)cc(=O)n3C)cc2)c1 [Example 141, N-((6-amino-2,4-dimethylpyridin-3-yl)methyl)-1-(4-((2,5-dimethyl-3-oxo-2,3-dihydro-1H-pyrazol-1-yl)methyl)benzyl)-1H-pyrazole-4-carboxamide] | 1.2 nM |
| Cc1cc(N)nc(C)c1CNC(=O)c1cnn(Cc2ccc(Cn3ccccc3=O)cc2)c1 [Example 142, N-((6-amino-2,4-dimethylpyridin-3-yl)methyl)-1-(4-((2-oxopyridin-1(2H)-yl)methyl)benzyl)-1H-pyrazole-4-carboxamide] | 0.0224 nM |
| Cc1cc(N)nc(C)c1CNC(=O)c1cnn(Cc2ccc(CN3CCCC3=O)cc2)c1 [Example 143, N-((6-amino-2,4-dimethylpyridin-3-yl)methyl)-1-(4-((2-oxopyrrolidin-1-yl)methyl)benzyl)-1H-pyrazole-4-carboxamide] | 2.6 nM |
| Cc1nc(N)cc(Cl)c1CNC(=O)c1cnn(Cc2ccccc2)c1 [Example 144, N-((6-amino-4-chloro-2-methylpyridin-3-yl)methyl]-1-benzyl-1H-pyrazole-4-carboxamide] | 42400 nM |
| Cc1cc(N)nc(C)c1CNC(=O)c1cnn(Cc2ccc(Cn3cccn3)cc2)c1 [Example 145, 1-(4-((1H-pyrazol-1-yl)methyl)benzyl)-N-((6-amino-2,4-dimethylpyridin-3-yl)methyl)-1H-pyrazole-4-carboxamide] | 0.2 nM |
| Cc1cnn(Cc2ccc(Cn3cc(C(=O)NCc4c(C)cc(N)nc4C)cn3)cc2)c1 [Example 146, N-((6-amino-2,4-dimethylpyridin-3-yl)methyl)-1-(4-((4-methyl-1H-pyrazol-1-yl)methyl)benzyl)-1H-pyrazole-4-carboxamide] | 0.04 nM |
| Cc1cc(C)n(Cc2ccc(Cn3cc(C(=O)NCc4c(C)cc(N)nc4C)nn3)cc2)n1 [Example 148, N-((6-amino-2,4-dimethylpyridin-3-yl)methyl)-1-(4-((3,5-dimethyl-1H-pyrazol-1-yl)methyl)benzyl)-1H-1,2,3-triazole-4-carboxamide] | 0.03 nM |
| Cc1nc(N)cc(OCC(=O)C(C)(C)C)c1CNC(=O)c1cnn(Cc2ccc3ccccc3c2)c1 [Example 149, N-((6-amino-4-(3,3-dimethyl-2-oxobutoxy)-2-methylpyridin-3yl)methyl)-1-(naphthalen-2-ylmethyl)-1H-pyrazole-4-carboxamide] | 7.8 nM |

| SMILES | IC50 |
| --- | --- |
| COCCN1CCCc2ccc(Cn3cc(C(=O)NCc4c(C)cc(N)nc4C)cn3)cc21 [Example 150, N-((6-Amino-2,4-dimethylpyridin-3-yl)methyl)-1-((1-(2-methoxyethyl)-1,2,3,4-tetrahydroquinolin-7-yl)methyl)-1H-pyrazole-4-carboxamide] | 10 nM |
| Cc1cc(N)nc(C)c1CNC(=O)c1cnn(Cc2ccc3c(c2)N(C)C(=O)CO3)c1 [Example 151, N-((6-Amino-2,4-dimethylpyridin-3-yl)methyl)-1-((4-methyl-3-oxo-3,4-dihydro-2H-benzo[b][1,4]oxazin-6-yl)methyl)-1H-pyrazole-4-carboxamide] | 13 nM |
| Cc1cc(N)nc(C)c1CNC(=O)c1cnn(Cc2ccc3c(c2)N(C)CCC3)c1 [Example 152, N-((6-Amino-2,4-dimethylpyridin-3-yl)methyl)-1-((1-methyl-1,2,3,4-tetrahydroquinolin-7-yl)methyl)-1H-pyrazole-4-carboxamide] | 4 nM |
| Cc1ccc2cc(Cn3cc(C(=O)NCc4c(C)cc(N)nc4C)cn3)ccc2n1 [Example 154, N-((6-amino-2,4-dimethylpyridin-3-yl)methyl)-1-((2-methylquinolin-6-yl)methyl)-1H-pyrazole-4-carboxamide] | 2 nM |
| Cc1cc(N)nc(C)c1CNC(=O)c1cnn(Cc2cnc3ccccc3c2)c1 [Example 155, N-((6-amino-2,4-dimethylpyridin-3-yl)methyl)-1-(quinolin-3-ylmethyl)-1H-pyrazole-4-carboxamide] | 3 nM |
| Cc1ccc2cc(Cn3cc(C(=O)NCc4ccc(N)nc4C)cn3)ccc2n1 [Example 159, N-((6-amino-2-methylpyridin-3-yl)methyl)-1-((2-methylquinolin-6-yl)methyl)-1H-pyrazole-4-carboxamide] | 7 nM |
| Cc1nc(N)ccc1CNC(=O)c1cnn(Cc2cc(C(F)(F)F)c3cc(F)ccc3n2)c1 [Example 160, N-((6-amino-2-methylpyridin-3-yl)methyl)-1-((6-fluoro-4-(trifluoromethyl)quinolin-2-yl)methyl)-1H-pyrazole-4-carboxamide] | 20 nM |
| Cc1cc(C)c2cc(Cn3cc(C(=O)NCc4ccc(N)nc4C)cn3)c(C)nc2c1 [Example 161, N-((6-amino-2-methylpyridin-3-yl)methyl)-1-((2,5,7-trimethylquinolin-3-yl)methyl)-1H-pyrazole-4-carboxamide] | 4 nM |
| Cc1cc(N)nc(C)c1CNC(=O)c1cnn(Cc2cc(C(F)(F)F)c3cc(F)ccc3n2)c1 [Example 162, N-((6-amino-2,4-dimethylpyridin-3-yl)methyl)-1-((6-fluoro-4-(trifluoromethyl)quinolin-2-yl)methyl)-1H-pyrazole-4-carboxamide] | 5 nM |
| Cc1cc(N)nc(C)c1CNC(=O)c1cn(Cc2ccc3c(c2)c(C)c(C)n3C)nn1 [Example 166, N-((6-amino-2,4-dimethylpyridin-3-yl)methyl)-1-((1,2,3-trimethyl-1H-indol-5-yl)methyl)-1H-1,2,3-triazole-4-carboxamide] | 0.2 nM |
| Cc1nc(N)cc(Cl)c1CNC(=O)c1cnn(Cc2ccc(Cn3ccccc3=O)cc2)c1 [Example 167, N-((6-Amino-4-chloro-2-methylpyridin-3-yl)methyl)-1-(4-((2-oxopyridin-1(2H)-yl)methyl)benzyl)-1H-pyrazole-4-carboxamide] | 0.2 nM |
| Cc1cc(N)nc(C)c1CNC(=O)c1cnn(Cc2ccc3c(c2)cc(C)n3C)c1 [Example 168, N-((6-Amino-2,4-dimethylpyridin-3-yl)methyl)-1-((1,2-dimethyl-1H-indol-5-yl)methyl)-1H-pyrazole-4-carboxamide] | 0.1 nM |
| Cc1cn2cc(Cn3cc(C(=O)NCc4c(C)cc(N)nc4C)cn3)ccc2n1 [Example 169, N-((6-amino-2,4-dimethylpyridin-3-yl)methyl)-1-((2-methylimidazo[1,2-a]pyridin-6-yl)methyl)-1H-pyrazole-4-carboxamide] | 3 nM |
| Cc1ccc2cc(Cc3nc(C(=O)NCc4c(C)cc(N)nc4C)co3)ccc2n1 [Example 170, N-((6-amino-2,4-dimethylpyridin-3-yl)methyl)-2-((2-methylquinolin-6-yl)methyl)oxazole-4-carboxamide] | 9.7 nM |
| Cc1cc(N)nc(C)c1CNC(=O)c1cnn(Cc2cc3ccsc3c(N)n2)c1 [Example 171, N-((6-Amino-2,4-dimethylpyridin-3-yl)methyl)-1-((7-aminothieno[2,3-c]pyridin-5-yl)methyl)-1H-pyrazole-4-carboxamide] | 26 nM |
| Cc1nc(N)cc(Cl)c1CNC(=O)c1cnn(Cc2ccc3ccccc3c2)c1 [Example 172, N-((6-amino-4-chloro-2-methylpyridin-3-yl)methyl)-1-(naphthalen-2-ylmethyl)-1H-pyrazole-4-carboxamide] | 60 nM |
| Cc1cc(N)nc(C)c1CNC(=O)c1cnn(Cc2ccc3c(c2)CCS3(=O)=O)c1 [Example 174, N-((6-amino-2,4-dimethylpyridin-3-yl)methyl)-1-((1,1-dioxido-2,3-dihydrobenzo[b]thiophen-5-yl)methyl)-1H-pyrazole-4-carboxamide] | 75 nM |

Source: patent US9290485B2, “N-((6-amino-pyridin-3-yl)methyl)-heteroaryl-carboxamides” (NOVARTIS AG, priority 2010, dated 2016)
